Consider 34 molecules from patent US4839374A, “4-((Bicyclic heterocyclyl)-methyl and -hetero)-piperidines” (Janssen Pharmaceutica, N.V., priority 1987, dated 1989).

Assay [1] relates to effects of serotonin. In words: Antagonistic activity on the effects of serotonin in the gastric lesion test (lesions induced by compound 48/80). It is filed as in vivo, rats of a Wistar inbred strain. The note with it: for ED50: Rattus norvegicus, po, read-out: gastric lesion test ED50. Summed up: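 Fasted male Wistar rats (220–250 g) dosed orally with compound; 1 h later 2.5 mg/kg s.c. H1 antagonist, then compound 48/80 i.v. Stomachs examined 4 h afterwards for distension and glandular lesions (scored 0 to +++); ED50 is the oral dose (mg/kg) abolishing both in 50% of rats.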

Assay [2] concerns compound 48/80-induced lethality. In words: Protection of rats from compound 48/80-induced lethality. The note with it: Rattus norvegicus, 4 h, read-out: Compound 48/80 lethality test in rats ED50, s.c. or p.o. 1 h before compound 48/80 0.5 mg/kg i.v.; protection of 50% of animals, survival after 4 hours. It is filed as in vivo, rats of an inbred Wistar strain. Summed up: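 Male inbred Wistar rats (240-260 g), starved overnight, dosed subcutaneously or orally with compound or 0.9% NaCl before compound 48/80 challenge. Survival at 4 hours counted as protection. ED50 in mg/kg is the dose protecting 50% of animals from lethality.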

[3] abbreviates: compound 48/80 1 mg/kg i.v., distension and lesions of stomach completely absent in 50% of rats.

Each structure is given as a SMILES string. Read-outs that look alike come from different tables or passages of the source.

`Fc1ccc(Cn2c(CC3CCN(CCn4c(S)nc5cncnc54)CC3)nc3ccccc32)cc1` [Compound 495, 9-[2-[4-[[1-[(4-fluorophenyl)methyl]-1H-benzimidazol-2-yl]methyl]-1-piperidinyl]ethyl]-9H-purine-8-thiol]: the ED50 was 0.16 mg/kg in assay [1] (setting [3]) and 0.04 mg/kg in assay [2].

In the case of `Fc1ccc(Cn2c(CC3CCN(CCc4cccs4)CC3)nc3ccccc32)cc1` [Compound 118, 1-[(4-fluorophenyl)methyl]-2-[[1-[2-(2-thienyl)ethyl]-4-piperidinyl]-methyl]-1H-benzimidazole], the results for the ED50 in assay [1] (setting [3]) and in assay [2] were 0.63 mg/kg and 0.04 mg/kg, respectively.

As for `O=c1[nH]c2ccccc2c(=O)n1CCN1CCC(Cc2nc3cccnc3n2Cc2ccc(F)cc2)CC1` [Compound 224], the ED50 in assay [1] is 0.08 mg/kg; in assay [2] it was 0.04 mg/kg.

On to `Cc1nc2scc(C)n2c(=O)c1CCN1CCC(Cc2nc3ccccc3n2Cc2ccc(F)cc2)CC1` [Compound 219], for which the ED50 in assay [1] (setting [3]) stood at 0.63 mg/kg; in assay [2] it was 0.08 mg/kg.

Regarding `Fc1ccc(Cn2c(CC3CCN(C4CCCCC4)CC3)nc3ccccc32)cc1` [Compound 99], the ED50 was 0.31 mg/kg in assay [1] (setting [3]) and 0.04 mg/kg in assay [2].

`CN(C)C(=O)NCCN1CCC(Cc2nc3cccnc3n2Cc2ccc(F)cc2)CC1` [Compound 448, N'-[2-[4-[[3-[(4-fluorophenyl)methyl]-3H-imidazo[4,5-b]pyridin-2-yl]methyl]-1-piperidinyl]ethyl]-N,N-dimethylurea]: the ED50 in assay [1] (setting [3]) amounted to 0.16 mg/kg; in assay [2], 0.08 mg/kg.

For `Nc1nccnc1C(=O)NCCN1CCC(Cc2nc3ccccc3n2Cc2ccc(F)cc2)CC1` [Compound 436, 3-amino-N[2-[4-[[1-[(4-fluorophenyl)methyl]-1H-benzimidazol-2-yl]methyl]-1-piperidinyl]ethyl]-2-pyrazinecarboxamide], the ED50 worked out at 0.63 mg/kg in assay [1] (setting [3]) and 0.01 mg/kg in assay [2].

Take `COc1ccc(CCN2CCC(Cc3nc4ccccc4n3Cc3ccoc3)CC2)cc1` [Compound 260]: the results for the ED50 in assay [1] (setting [3]) and in assay [2] were 0.63 mg/kg and 0.01 mg/kg, respectively.

Turning to `Oc1nc2cncnc2n1CCN1CCC(Cc2nc3ccccc3n2Cc2ccc(F)cc2)CC1` [Compound 502, 9-[2-[4-[[1-[(4-fluorophenyl)methyl]-1H-benzimidazol-2-yl]methyl]-1-piperidinyl]ethyl]-9H-purin-8-ol], the figures for the ED50 in assay [1] (setting [3]) and in assay [2] were 0.16 mg/kg and 0.08 mg/kg, respectively.

For `O=c1cc[nH]c(NCCN2CCC(Cc3nc4ccccc4n3Cc3ccc(F)cc3)CC2)n1` [Compound 331, 2-[[2-[4-[[1-[(4-fluorophenyl)methyl]-1H-benzimidazol-2-yl]methyl]-1-piperidinyl]ethyl]amino]-4(1H)-pyrimidinone], the ED50 in assay [1] (setting [3]) came out at 0.02 mg/kg; in assay [2], 0.04 mg/kg.

Take `Fc1ccc(Cn2c(CC3CCN(CCNc4ccccn4)CC3)nc3ccccc32)cc1` [Compound 499]: the ED50 in assay [1] (setting [3]) is 0.01 mg/kg; in assay [2] it was 0.04 mg/kg.

For the molecule `O=C(NCCN1CCC(Cc2nc3ccccc3n2Cc2ccc(F)cc2)CC1)c1ccsc1` [Compound 431], the ED50 came to 0.005 mg/kg in assay [1] (setting [3]) and 0.04 mg/kg in assay [2].

Regarding `Fc1ccc(Cn2c(CC3CCN(CCn4c(=S)[nH]c5ccccc54)CC3)nc3ccccc32)cc1` [Compound 493, 1-[2-[4-[[1-[(4-fluorophenyl)methyl]-1H-benzimidazol-2-yl]methyl]-1-piperidinyl]ethyl]-1,3-dihydro-2H-benzimidazole-2-thione], the ED50 in assay [1] turned out to be 0.04 mg/kg; in assay [2], 0.08 mg/kg.

`Oc1ccc(CCN2CCC(Cc3nc4ccc(O)cc4n3Cc3ccc(F)cc3)CC2)cc1` [Compound 505, 1-[(4-fluorophenyl)methyl]-2-[[1-[2-(4-hydroxyphenyl)ethyl]-4-piperidinyl]-methyl]-1H-benzimidazol-6-ol]: the ED50 in assay [1] and in assay [2] was 0.04 mg/kg throughout.

For `CC(=O)N(CCN1CCC(Cc2nc3ccccc3n2Cc2ccc(F)cc2)CC1)c1ncccn1` [Compound 510, N-[2-[4-[[1-[(4-fluorophenyl)methyl]-1H-benzimidazol-2-yl]methyl]-1-piperidinyl]ethyl]-N-(2-pyrimidinyl)acetamide], the ED50 in assay [1] (setting [3]) stood at 0.16 mg/kg; in assay [2] it was 0.02 mg/kg.

For `c1cnc(OCCN2CCC(Cc3nc4ccccc4n3Cc3ccco3)CC2)nc1` [Compound 392, 1-(2-furanylmethyl)-2-[[1-[2-(2-pyrimidinyloxy)ethyl]-4-piperidinyl]methyl]-1H-benzimidazole], the ED50 in assay [1] (setting [3]) amounted to 0.63 mg/kg; in assay [2], 0.02 mg/kg.

For `Fc1ccc(Cn2c(CC3CCN(CCNc4nnc(Cl)c5ccccc45)CC3)nc3ccccc32)cc1` [Compound 381, 4-chloro-N-[2-[4-[[1-[(4-fluorophenyl)methyl]-1H-benzimidazol-2-yl]methyl]-1-piperidinyl]ethyl]-1-phthalazinamine], the ED50 worked out at 0.16 mg/kg in assay [1] (setting [3]) and 0.08 mg/kg in assay [2].

For `Cc1csc(NCCN2CCC(Cc3nc4ccccc4n3Cc3ccc(F)cc3)CC2)n1` [Compound 456, 4-[(1-[(4-fluorophenyl)methyl]-1H-benzimidazol-2-yl]methyl]-N-(4-methyl-2-thiazolyl)-1-piperidineethanamine], the ED50 in assay [1] (setting [3]) amounted to 0.63 mg/kg; in assay [2] it was 0.01 mg/kg.

`Cc1cc(Cl)nc(NCCN2CCC(Cc3nc4ccccc4n3Cc3ccc(F)cc3)CC2)n1` [Compound 382, 4-chloro-N-[2-[4-[[1-[(4-fluorophenyl)methyl]-1H-benzimidazol-2-yl]methyl]-1-piperidinyl]ethyl]-6-methyl-2-pyrimidinamine]: the ED50 in assay [1] (setting [3]) worked out at 0.63 mg/kg; in assay [2], 0.08 mg/kg.

For `Cc1nc2ccccn2c(=O)c1CCN1CCC(Cc2nc3ccccc3n2Cc2ccco2)CC1` [Compound 218], the ED50 in assay [1] and in assay [2] was 0.04 mg/kg each time.

For `Cc1nc2ccccn2c(=O)c1CCN1CCC(Sc2nc3ccccc3n2Cc2ccc(F)cc2)CC1` [Compound 244, 3-[2-[4-[[1-[(4-fluorophenyl)methyl]-1H-benzimidazol-2-yl]thio]-1-piperidinyl]-ethyl]-2-methyl-4H-pyrido[1,2-a]pyrimidin-4-one], the values for the ED50 in assay [1] (setting [3]) and in assay [2] were 0.31 mg/kg and 0.16 mg/kg, respectively.

`Fc1ccc(Cn2c(CC3CCN(CCNc4nccs4)CC3)nc3cccnc32)cc1` [Compound 357]: the ED50 in assay [1] (setting [3]) was 0.63 mg/kg; in assay [2], 0.02 mg/kg.

Turning to `O=c1c2ccccc2[nH]c(=S)n1CCN1CCC(Cc2nc3ccccc3n2Cc2ccco2)CC1` [Compound 461, 3-[2-[4-[[1-(2-furanylmethyl)-1H-benzimidazol-2-yl]methyl]-1-piperidinyl]ethyl]-2,3-dihydro-2-thioxo-4(1H)-quinazolinone], the ED50 in assay [1] and in assay [2] was 0.08 mg/kg in each case.

As to `Cc1nc2ccccn2c(=O)c1CCN1CCC(Cc2nc3ccccc3n2Cc2ccc(F)cc2)CC1` [Compound 214], the ED50 was 0.04 mg/kg in assay [1] and 0.08 mg/kg in assay [2].

With `Cc1ncsc1CCN1CCC(Cc2nc3ccccc3n2Cc2ccc(F)cc2)CC1` [Compound 182], the ED50 in assay [1] (setting [3]) is 0.63 mg/kg; in assay [2], 0.04 mg/kg.

In the case of `Fc1ccc(Cn2c(CC3CCN(CCNc4ncccn4)CC3)nc3cccnc32)cc1` [Compound 376, N-[2-[4-[[3-[(4-fluorophenyl)methyl]-3H-imidazo[4,5-b]pyridin-2-yl]methyl]-1-piperidinyl]ethyl]-2-pyrimidinamine], the figures for the ED50 in assay [1] (setting [3]) and in assay [2] were 0.63 mg/kg and 0.02 mg/kg, respectively.

Consider `CC(=O)CCN1CCC(Cc2nc3ccccc3n2Cc2ccc(F)cc2)CC1` [Compound 102, 4-[4-[[1-[(4-fluorophenyl)methyl]-1H-benzimidazol-2-yl]methyl]-1-piperidinyl]-2-butanone], for which the ED50 in assay [1] (setting [3]) amounted to 0.31 mg/kg; in assay [2], 0.02 mg/kg.

As to `O=C(CCCN1CCC(Cc2nc3cccnc3n2Cc2ccc(F)cc2)CC1)c1ccc(F)cc1` [Compound 127], the “gastric lesion test ED50” value in assay [1] (oral, compound 48/80 1 mg/kg i.v., distension and lesions of stomach completely absent in 50% of rats, 1 mg/kg) worked out at 0.63 mg/kg body weight. Besides, the ED50 in assay [2] came out at 0.08 mg/kg.

As for `CN(CCN1CCC(Cc2nc3ccccc3n2Cc2ccc(F)cc2)CC1)c1ncccn1` [Compound 514, N-[2-[4-[[1-[(4-fluorophenyl)methyl]-1H-benzimidazol-2-yl]methyl]-1-piperidinyl]ethyl]-N-methyl-2-pyrimidinamine], the ED50 in assay [1] (setting [3]) came out at 0.63 mg/kg; in assay [2], 0.02 mg/kg.

In the case of `CN1CCC(Cc2nc3ccccc3n2Cc2ccc(F)cc2)CC1` [Compound 82], the figures for the ED50 in assay [1] (setting [3]) and in assay [2] were 0.63 mg/kg and 0.005 mg/kg, respectively.

Take `N#CCN1CCC(Cc2nc3ccccc3n2Cc2ccc(F)cc2)CC1` [Compound 283]: the ED50 in assay [1] (setting [3]) is 0.63 mg/kg; in assay [2], 0.04 mg/kg.

Turning to `CC(C)NC(=O)CCN1CCC(Cc2nc3cccnc3n2Cc2ccc(F)cc2)CC1` [Compound 143, 4-[[3-[(4-fluorophenyl)methyl]-3H-imidazo[4,5-b]pyridin-2-yl]methyl]-N-(1-methylethyl)-1-piperidinepropanamide], the figures for the ED50 in assay [1] (setting [3]) and in assay [2] were 0.63 mg/kg and 0.04 mg/kg, respectively.

With `CCOCCN1CCC(Cc2nc3ccccc3n2Cc2ccc(F)cc2)CC1` [Compound 133], the results for the ED50 in assay [1] (setting [3]) and in assay [2] were 0.16 mg/kg and 0.02 mg/kg, respectively.

`O=c1[nH]c2ccccc2c(=O)n1CCN1CCC(Cc2nc3ccccc3n2Cc2cccs2)CC1` [Compound 186]: the ED50 in assay [1] (setting [3]) was 0.31 mg/kg; in assay [2], 0.04 mg/kg.
